{"source": "patent US7662576B2", "about": "“Method for identifying ester coolers” (International Flavors & Fragrances Inc., priority 2007, dated 2010)", "key": {"[1]": {"conditions": "cited from earlier work; for Relative Cooling Strengths: compared to (−)-Menthol at 100, source Erman (2003); for relative cooling strength: with respect to WS-3 at 10.0, U.S. Patent Application No. 20050265930"}, "TRPA1": {"test_system": "TRPA1", "conditions": "literature; cited from earlier work"}, "TRPM8 [2]": {"molecular_target": "TRPM8 (Homo sapiens, UniProt Q7Z2W7)", "sequence (Q7Z2W7 whole entry, species assumed)": "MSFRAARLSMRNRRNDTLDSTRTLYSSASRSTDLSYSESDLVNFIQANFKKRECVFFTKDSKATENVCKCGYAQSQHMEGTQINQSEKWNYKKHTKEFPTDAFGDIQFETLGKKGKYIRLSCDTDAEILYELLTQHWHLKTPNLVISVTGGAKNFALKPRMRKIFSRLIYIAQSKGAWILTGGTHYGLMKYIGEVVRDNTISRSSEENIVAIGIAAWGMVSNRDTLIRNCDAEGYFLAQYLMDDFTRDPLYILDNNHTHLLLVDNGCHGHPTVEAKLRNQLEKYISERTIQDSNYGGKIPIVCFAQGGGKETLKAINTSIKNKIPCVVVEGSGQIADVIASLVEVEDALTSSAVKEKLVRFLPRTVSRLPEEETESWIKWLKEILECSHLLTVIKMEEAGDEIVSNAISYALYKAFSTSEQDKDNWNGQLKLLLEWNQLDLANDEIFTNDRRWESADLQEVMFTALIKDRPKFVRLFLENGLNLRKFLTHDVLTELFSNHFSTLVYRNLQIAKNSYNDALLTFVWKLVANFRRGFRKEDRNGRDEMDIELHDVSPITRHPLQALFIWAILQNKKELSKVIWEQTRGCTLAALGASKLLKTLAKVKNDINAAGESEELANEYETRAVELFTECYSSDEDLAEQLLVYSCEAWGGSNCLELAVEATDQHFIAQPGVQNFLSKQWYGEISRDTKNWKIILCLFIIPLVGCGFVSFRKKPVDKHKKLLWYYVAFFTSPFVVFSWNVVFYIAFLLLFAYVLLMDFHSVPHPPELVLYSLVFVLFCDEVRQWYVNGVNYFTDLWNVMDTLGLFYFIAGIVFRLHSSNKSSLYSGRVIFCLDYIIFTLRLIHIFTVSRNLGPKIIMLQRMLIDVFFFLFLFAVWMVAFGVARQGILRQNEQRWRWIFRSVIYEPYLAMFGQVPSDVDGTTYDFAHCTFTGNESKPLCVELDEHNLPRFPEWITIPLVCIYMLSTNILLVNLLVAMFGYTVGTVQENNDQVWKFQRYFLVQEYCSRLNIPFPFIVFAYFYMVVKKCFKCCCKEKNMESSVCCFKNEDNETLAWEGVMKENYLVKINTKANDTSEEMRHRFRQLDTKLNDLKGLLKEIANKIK", "test": "TRPM8 FLIPR analysis (calcium, Fluo4NW)", "type": "cell-based", "conditions": "for response of TRPM8 channel / comparison of TRPM8 and TRPA1 response: FLIPR; for response of TRPM8 channel: result in words; for temporal response: FIG. 2; for comparison of TRPM8 and TRPA1 response: TRPM8 versus TRPA1", "method": "(§1) Materials. Fluo4NW solution was prepared by solubilizing one Fluo4NW bottle (Molecular Probes #F36206, component A) in 16 mL of Tyrode buffer (pH 7.4, 130 mM NaCl, 5 mM KCl, 2 mM CaCl2, 1 mM MgCl2, 5 mM NaHCO3, 20 mM HEPES). To the resulting solution was then added 100 μL of water-soluble probenecid (Molecular Probes #F36206, component B).\n(§2) Cell Preparation. Cells were trypsinized and 10,000 cells were dispensed per well in poly-lysine-coated, black, clear-bottom 384-well plates (35 μL/well in DMEM without antibiotics). Cells were incubated for 24 hours at 37° C. in 5% CO2. The medium was completely eliminated and 20 (TRPA1) or 40 (TRPM8) μL/well of Fluo4NW solution was added to the plates. Cells were incubated for 1 hour at room temperature protected from light. Two addition kinetic measurements were recorded on the instrument for 7.5 (TRPA1) or 15 (TRPM8) minutes."}, "TRPM8 [3]": {"molecular_target": "TRPM8 (Mus musculus, UniProt Q8R4D5)", "sequence (Q8R4D5 whole entry)": "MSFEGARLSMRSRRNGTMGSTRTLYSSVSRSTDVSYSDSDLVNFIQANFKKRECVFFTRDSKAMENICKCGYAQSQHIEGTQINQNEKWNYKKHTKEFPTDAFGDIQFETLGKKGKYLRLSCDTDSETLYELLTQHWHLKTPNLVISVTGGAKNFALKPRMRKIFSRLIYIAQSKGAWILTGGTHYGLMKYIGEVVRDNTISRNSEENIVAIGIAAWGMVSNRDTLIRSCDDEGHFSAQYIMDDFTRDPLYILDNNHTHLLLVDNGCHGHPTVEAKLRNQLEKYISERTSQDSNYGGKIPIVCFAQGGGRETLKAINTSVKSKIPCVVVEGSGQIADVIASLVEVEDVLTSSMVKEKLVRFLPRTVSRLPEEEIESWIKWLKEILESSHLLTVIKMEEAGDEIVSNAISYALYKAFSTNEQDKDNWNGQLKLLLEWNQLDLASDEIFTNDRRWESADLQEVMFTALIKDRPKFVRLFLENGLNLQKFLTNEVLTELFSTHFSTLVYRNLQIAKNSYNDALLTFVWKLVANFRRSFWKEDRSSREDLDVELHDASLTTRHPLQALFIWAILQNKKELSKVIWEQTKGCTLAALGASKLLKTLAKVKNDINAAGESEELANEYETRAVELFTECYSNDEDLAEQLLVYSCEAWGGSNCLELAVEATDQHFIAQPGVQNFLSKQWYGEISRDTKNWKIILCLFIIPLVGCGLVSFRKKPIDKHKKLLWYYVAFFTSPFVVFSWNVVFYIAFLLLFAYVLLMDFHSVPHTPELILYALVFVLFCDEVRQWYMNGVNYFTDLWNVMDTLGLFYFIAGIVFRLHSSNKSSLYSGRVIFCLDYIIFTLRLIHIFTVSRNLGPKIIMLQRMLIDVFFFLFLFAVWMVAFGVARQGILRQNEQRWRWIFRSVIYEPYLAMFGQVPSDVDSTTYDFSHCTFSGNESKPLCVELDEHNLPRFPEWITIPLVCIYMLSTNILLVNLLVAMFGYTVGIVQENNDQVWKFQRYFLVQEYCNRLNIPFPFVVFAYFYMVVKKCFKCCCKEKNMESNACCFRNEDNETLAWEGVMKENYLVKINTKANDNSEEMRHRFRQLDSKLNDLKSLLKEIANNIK", "conditions": "Behrendt et al. (2004); cited from earlier work"}, "human TRPA1": {"molecular_target": "T1, human TRPA1 (Homo sapiens, UniProt O75762)", "T1 construct": "expressed in transfected cells", "T1 sequence (O75762 whole entry)": "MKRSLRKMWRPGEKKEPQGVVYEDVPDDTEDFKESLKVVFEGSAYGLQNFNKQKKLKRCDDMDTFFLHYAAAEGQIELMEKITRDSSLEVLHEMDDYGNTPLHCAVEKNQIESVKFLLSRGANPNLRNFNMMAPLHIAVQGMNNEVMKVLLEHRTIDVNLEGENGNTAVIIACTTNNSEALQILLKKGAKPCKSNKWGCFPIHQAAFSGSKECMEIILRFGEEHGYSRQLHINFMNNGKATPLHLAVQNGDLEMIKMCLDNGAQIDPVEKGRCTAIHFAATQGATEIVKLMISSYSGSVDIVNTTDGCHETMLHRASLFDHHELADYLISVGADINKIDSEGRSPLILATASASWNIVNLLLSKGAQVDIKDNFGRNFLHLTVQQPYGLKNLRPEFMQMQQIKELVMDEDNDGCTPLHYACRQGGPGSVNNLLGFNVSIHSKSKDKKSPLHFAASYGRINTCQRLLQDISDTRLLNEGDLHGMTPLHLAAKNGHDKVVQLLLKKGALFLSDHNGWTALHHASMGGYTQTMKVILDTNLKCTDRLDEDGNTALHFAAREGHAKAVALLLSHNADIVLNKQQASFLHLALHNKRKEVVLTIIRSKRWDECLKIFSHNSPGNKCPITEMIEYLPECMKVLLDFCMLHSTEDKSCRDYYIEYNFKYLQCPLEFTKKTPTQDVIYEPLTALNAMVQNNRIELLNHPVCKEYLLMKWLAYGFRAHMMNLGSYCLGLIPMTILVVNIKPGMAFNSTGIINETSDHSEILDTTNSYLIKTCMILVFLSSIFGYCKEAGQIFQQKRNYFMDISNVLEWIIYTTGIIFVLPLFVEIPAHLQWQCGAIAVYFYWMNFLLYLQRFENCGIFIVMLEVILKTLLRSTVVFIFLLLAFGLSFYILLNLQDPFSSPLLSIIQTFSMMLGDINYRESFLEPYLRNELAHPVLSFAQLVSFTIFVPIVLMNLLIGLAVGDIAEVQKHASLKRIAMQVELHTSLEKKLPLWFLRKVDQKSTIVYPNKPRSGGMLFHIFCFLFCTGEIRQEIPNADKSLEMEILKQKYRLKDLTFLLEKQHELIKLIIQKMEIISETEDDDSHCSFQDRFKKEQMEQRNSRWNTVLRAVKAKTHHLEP", "test": "TRPA1 FLIPR analysis (calcium, Fluo4NW) in TREX FLP-IN HEK 293 cells expressing TRPA1", "type": "cell-based", "conditions": "result in words", "method": "Preferred assays to measure TRPA1 channel activity are cell-based assays that utilize cells loaded with ion or voltage-sensitive dyes to report TRPA1 activation. By way of illustration, an inducible TRPA1 cell line was created by stably introducing TRPA1 into TREX-FLPN cells (INVITROGEN). […] In this assay, cells were incubated with a suitable flouroscent dye. […] After obtaining a baseline, various cooling compounds were added and fluorescence measured for several minutes.\nas §1, §2\nNotI and XhoI restriction sites were also added to the ends to facilitate cloning into expression vectors.\nThe TRPA1 cDNA was cloned into two expression vectors, pcDNA5/FRT and pcDNA5/FRT/TO (INVITROGEN), using the NotI and XhoI sites. The former vector allows for constitutive expression in mammalian cells the latter for inducible expression in same. Restriction digests, ligations and transformations were performed using routine molecular biological techniques, wherein restriction enzymes were obtained from New England Biolabs, a rapid ligation kit from Roche and competent cells (Max Efficiency DH5 t1 phage-resistant) from INVITROGEN. […]"}, "mouse TRPA1 channel": {"molecular_target": "mouse TRPA1 channel (Mus musculus, UniProt Q8BLA8)", "sequence (Q8BLA8 whole entry)": "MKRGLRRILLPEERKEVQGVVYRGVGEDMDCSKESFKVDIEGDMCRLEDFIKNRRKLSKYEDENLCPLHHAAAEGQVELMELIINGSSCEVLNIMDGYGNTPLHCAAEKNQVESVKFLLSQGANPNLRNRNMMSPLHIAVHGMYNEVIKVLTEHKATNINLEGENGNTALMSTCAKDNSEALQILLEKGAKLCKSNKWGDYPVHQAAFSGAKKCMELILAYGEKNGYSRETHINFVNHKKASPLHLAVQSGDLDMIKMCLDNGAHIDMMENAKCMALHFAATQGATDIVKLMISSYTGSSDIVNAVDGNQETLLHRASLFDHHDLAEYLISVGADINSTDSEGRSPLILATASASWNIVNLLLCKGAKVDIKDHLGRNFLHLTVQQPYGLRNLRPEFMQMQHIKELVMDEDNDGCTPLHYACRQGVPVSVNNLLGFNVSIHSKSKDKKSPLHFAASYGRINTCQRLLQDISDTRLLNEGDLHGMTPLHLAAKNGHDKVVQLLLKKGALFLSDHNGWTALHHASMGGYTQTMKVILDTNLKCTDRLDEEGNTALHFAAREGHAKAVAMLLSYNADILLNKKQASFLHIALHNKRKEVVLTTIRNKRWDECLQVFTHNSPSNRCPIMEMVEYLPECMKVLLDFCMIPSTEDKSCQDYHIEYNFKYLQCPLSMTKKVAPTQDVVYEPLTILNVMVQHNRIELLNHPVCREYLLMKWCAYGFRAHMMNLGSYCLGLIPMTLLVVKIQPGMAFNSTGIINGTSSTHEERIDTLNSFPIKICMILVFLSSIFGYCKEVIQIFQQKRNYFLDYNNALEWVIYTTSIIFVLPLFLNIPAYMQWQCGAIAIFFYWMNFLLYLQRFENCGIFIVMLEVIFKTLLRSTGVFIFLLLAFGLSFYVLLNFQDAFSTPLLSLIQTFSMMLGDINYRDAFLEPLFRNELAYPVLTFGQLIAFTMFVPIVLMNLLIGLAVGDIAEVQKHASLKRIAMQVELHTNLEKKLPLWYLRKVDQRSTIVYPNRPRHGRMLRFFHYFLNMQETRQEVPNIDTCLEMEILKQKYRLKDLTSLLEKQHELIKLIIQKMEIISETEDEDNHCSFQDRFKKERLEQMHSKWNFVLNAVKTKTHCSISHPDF", "conditions": "literature; cited from earlier work"}}, "note": "Entries after “also recorded” stand apart in the source; their conditions may differ.", "data": [{"compound": "1-glyceryl p-menthane-3-carboxylate [WS-30]", "values": [{"measurement": "Relative Cooling Strengths", "setting": "[1]", "value": 22.5}, {"measurement": "relative cooling strength", "setting": "[1]", "value": "about 1.5"}]}, {"compound": "CC(C)[C@@H]1CC[C@@H](C)C[C@H]1OCC(O)CO", "note": "(mixture of isomers) [(2RS)-3-1-menthoxy)propane-1,2-diol]", "values": [{"measurement": "Relative Cooling Strengths", "setting": "[1]", "value": 22.5}]}, {"compound": "CC1CCC(C(C)C)C(O)C1", "note": "(single isomer, unassigned; (+)) [(+)-Menthol]", "values": [{"measurement": "Relative Cooling Strengths", "setting": "[1]", "value": 27}]}, {"compound": "CC1CCC(C(C)C)C(O)C1", "note": "(single isomer, unassigned; (-)) [(−)-Menthol]", "values": [{"measurement": "Relative Cooling Strengths", "setting": "[1]", "value": 100}]}, {"compound": "CC1CCC(C(C)C)C(O)C1", "note": "(single isomer, unassigned; (-)) [(−)-Neomenthol]", "values": [{"measurement": "Relative Cooling Strengths", "setting": "[1]", "value": 3}]}, {"compound": "CS(=O)(=O)SCCN", "note": "[(2-aminoethyl)methanethiosulfonate]", "values": [{"measurement": "activation of TRPA1", "setting": "TRPA1", "value": "bind and activate TRPA1"}]}, {"compound": "CC(C)[C@@H]1CC[C@@H](C)C[C@H]1OC[C@H](O)CO", "note": "[(2R)-3-1-menthoxy)propane-1,2-diol]", "values": [{"measurement": "Relative Cooling Strengths", "setting": "[1]", "value": 15.8}]}, {"compound": "CC(C)[C@@H]1CC[C@@H](C)C[C@H]1OC[C@@H](O)CO", "note": "[(2S)-3-1-menthoxy)propane-1,2-diol]", "values": [{"measurement": "Relative Cooling Strengths", "setting": "[1]", "value": 39.5}]}, {"compound": "CC(C)[C@@H]1CC[C@H](C)C[C@H]1O", "note": "[(+)-Isomenthol]", "values": [{"measurement": "Relative Cooling Strengths", "setting": "[1]", "value": 11}]}, {"compound": "CC(C)[C@@H]1CC[C@@H](C)C[C@@H]1O", "note": "[(+)-Neomenthol]", "values": [{"measurement": "Relative Cooling Strengths", "setting": "[1]", "value": 32}]}, {"compound": "CC(C)[C@H]1CC[C@@H](C)C[C@@H]1O", "note": "[(−)-Isomenthol]", "values": [{"measurement": "Relative Cooling Strengths", "setting": "[1]", "value": 3}]}, {"compound": "CC(C)[C@@H]1CC[C@@H](C)C[C@H]1[O+](C)C(=O)CCCC(=O)O", "note": "[Cooler 2]", "values": [{"measurement": "response of TRPM8 channel", "setting": "TRPM8 [2]", "value": "did not respond well"}]}, {"compound": "CC1CCC(C(C)C)C(OC(=O)C(C)O)C1", "note": "(stereo not shown) [Frescolat MGA, menthyl lactate]", "values": [{"measurement": "Relative Cooling Strengths", "setting": "[1]", "value": 41}]}, {"compound": "CC(C)[C@@H]1CC[C@@H](C)C[C@H]1O", "note": "[Menthol]", "values": [{"measurement": "temporal response", "setting": "TRPM8 [2]; TRPM8 FLIPR", "value": "quick response with deterioration over time"}]}, {"compound": "CC1CCC(C(C)C)C(OC(=O)C(C)O)C1", "note": "(stereo not shown) [Menthyl Lactate]", "values": [{"measurement": "temporal response", "setting": "TRPM8 [2]; TRPM8 FLIPR", "value": "quick response with a quick loss of signal"}, {"measurement": "Emax", "setting": "TRPM8 [2]; TRPM8 FLIPR, read-out: response relative to the maximal response of amide coolers", "value": "~50", "unit": "%"}, {"measurement": "relative cooling strength", "setting": "[1]", "value": "about 2.9"}, {"measurement": "response relative to the level of menthol", "setting": "TRPM8 [3]", "value": 50, "unit": "%"}]}, {"compound": "CNC(=O)C1C(C)CCCC1(C)C", "note": "(stereo not shown) [N,2,2,6-Tetramethylcyclohexane-1-carboxamide]", "values": [{"measurement": "relative cooling strength", "setting": "[1]", "value": "about 1.0"}]}, {"compound": "CC1CCC(C(C)(C)O)C(O)C1", "note": "(stereo not shown) [PMD 38, p-menthane-3,8-diol]", "values": [{"measurement": "Relative Cooling Strengths", "setting": "[1]", "value": 11}]}, {"compound": "CC(=O)CC(=O)OC1CC(C)CCC1C(C)C", "note": "(stereo not shown) [Ultracool 7]", "values": [{"measurement": "response of TRPM8 channel", "setting": "TRPM8 [2]", "value": "did not respond well; also recorded: no response"}, {"measurement": "response of TRPA1", "setting": "human TRPA1", "value": "responded to a wide range of concentrations"}]}, {"compound": "CCNC(=O)C1CC(C)CCC1C(C)C", "note": "(stereo not shown) [WS-3, N-ethyl-p-menthane-3-carboxamide]", "values": [{"measurement": "comparison of TRPM8 and TRPA1 response", "setting": "TRPM8 [2]", "value": "TRPM8 responding better"}, {"measurement": "response of TRPM8 channel", "setting": "TRPM8 [2]", "value": "responded"}, {"measurement": "Relative Cooling Strengths", "setting": "[1]", "value": 150}, {"measurement": "relative cooling strength", "setting": "[1]", "value": 10.0}, {"measurement": "response of TRPA1", "setting": "human TRPA1", "value": "responded"}]}, {"compound": "CC1CCC(C(C)C)C(C(=O)OCCO)C1", "note": "(stereo not shown) [WS-4, Ethyleneglycol p-menthane-3-carboxylate]", "values": [{"measurement": "Relative Cooling Strengths", "setting": "[1]", "value": 23}]}, {"compound": "COc1ccc(NC(=O)C2CC(C)CCC2C(C)C)cc1", "note": "(stereo not shown) [WS-12, N-(4-methoxyphenyl)-p-menthane-3-carboxamide]", "values": [{"measurement": "Relative Cooling Strengths", "setting": "[1]", "value": 150}]}, {"compound": "CC1CCC(C(C)C)C(C(=O)NC(C)(C)C)C1", "note": "(stereo not shown) [WS-14, N-t-butyl-p-menthane-3-carboxamide]", "values": [{"measurement": "Relative Cooling Strengths", "setting": "[1]", "value": 75}, {"measurement": "relative cooling strength", "setting": "[1]", "value": "about 5.0"}]}, {"compound": "CNC(=O)C(C)(C(C)C)C(C)C", "note": "[WS-23, 2-Isopropyl-N,2,3-trimethylbutyramide]", "values": [{"measurement": "Relative Cooling Strengths", "setting": "[1]", "value": 75}, {"measurement": "relative cooling strength", "setting": "[1]", "value": "about 5.0"}]}, {"compound": "O=CC=Cc1ccccc1", "note": "[cinnamaldehyde]", "values": [{"measurement": "activation of mouse TRPA1 channel", "setting": "mouse TRPA1 channel", "value": "activated"}]}, {"compound": "C=CCc1ccc(O)c(OC)c1", "note": "[eugenol]", "values": [{"measurement": "activation of mouse TRPA1 channel", "setting": "mouse TRPA1 channel", "value": "activated"}]}, {"compound": "CCCCC[C@H](O)CC(=O)CCc1ccc(O)c(OC)c1", "note": "[gingerol]", "values": [{"measurement": "activation of mouse TRPA1 channel", "setting": "mouse TRPA1 channel", "value": "activated"}]}, {"compound": "NC(=O)CI", "note": "[iodoacetamide]", "values": [{"measurement": "activation of TRPA1", "setting": "TRPA1", "value": "bind and activate TRPA1"}]}, {"compound": "COC(=O)c1ccccc1O", "note": "[methyl salicylate]", "values": [{"measurement": "activation of mouse TRPA1 channel", "setting": "mouse TRPA1 channel", "value": "activated"}]}, {"compound": "CC(C)[C@@H]1CC[C@@H](C)C[C@H]1OC(=O)CCCC(=O)O", "note": "[monomenthyl glutarate]", "values": [{"measurement": "relative cooling strength", "setting": "[1]", "value": "about 3.5"}]}, {"compound": "C=CCN=C=S", "note": "[mustard oil, allyl isothiocyanate]", "values": [{"measurement": "activation of TRPA1", "setting": "TRPA1", "value": "activates TRPA1"}]}, {"compound": "(+)-Neoisomenthol", "values": [{"measurement": "Relative Cooling Strengths", "setting": "[1]", "value": 3}]}, {"compound": "(−)-Neoisomenthol", "values": [{"measurement": "Relative Cooling Strengths", "setting": "[1]", "value": 13}]}, {"compound": "(−)-isopulegol [Coolact P]", "values": [{"measurement": "Relative Cooling Strengths", "setting": "[1]", "value": 25}]}, {"compound": "Ethyl 3-(p-menthane-3-carboxamido)acetate [WS-5]", "values": [{"measurement": "comparison of TRPM8 and TRPA1 response", "setting": "TRPM8 [2]", "value": "TRPM8 responding better"}, {"measurement": "response of TRPM8 channel", "setting": "TRPM8 [2]", "value": "responded"}, {"measurement": "Relative Cooling Strengths", "setting": "[1]", "value": 400}, {"measurement": "relative cooling strength", "setting": "[1]", "value": "about 16.7"}, {"measurement": "response of TRPA1", "setting": "human TRPA1", "value": "responded"}]}]}
